Data from article doi:10.1101/2024.04.25.591105v1 (biorxiv, 2024).

Molecular target: 14-3-3σΔC / ERα phosphopeptide complex (crystals) (Homo sapiens, UniProt P03372+P31947)
Assay: X-ray crystallography, soaking
Format: binding
Conditions: ternary complex with Ac-ERα phosphopeptide

Chain of 14-3-3σΔC / ERα phosphopeptide complex (crystals) (P31947 1-231, stated change not applied, other chains not shown): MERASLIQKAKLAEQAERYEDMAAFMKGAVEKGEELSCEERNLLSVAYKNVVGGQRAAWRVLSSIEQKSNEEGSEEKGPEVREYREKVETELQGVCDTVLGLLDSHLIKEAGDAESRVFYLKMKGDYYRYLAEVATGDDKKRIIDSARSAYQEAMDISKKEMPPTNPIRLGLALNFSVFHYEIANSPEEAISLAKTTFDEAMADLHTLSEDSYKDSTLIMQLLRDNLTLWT

Row | Structure (SMILES) | X-ray crystallography, soaking
1 | C=CC(C)(C)OC[C@H]1O[C@H](O[C@@H]2C3=C([C@H](C)CNC(C)=O)C[C@H](O)[C@]3(C)/C=C3\[C@@H](COC)CC[C@H]3[C@@H](C)[C@H]2O)[C@H](O)[C@@H](O)[C@@H]1O [FC-NAc] | 8BZH (FC-NAc)
2 | COC[C@H]1CC[C@@H]2/C1=C/[C@]1(C)C(=C([C@H](C)CNC(C)=O)C[C@@H]1O)[C@@H](O)[C@H](O)[C@@H]2C [FC-NAg] | 8BZT (FC-NAg)
